Laboratory results: patent US20240369536A1, “A CELL BASED TEST TO MONITOR DMARD DRUG RESPONSE” (UNIVERSITY OF ULSTER, priority 2021, published 2024)
“Also recorded” adds a separate entry of the source.

Tests used:
[1] = system: CD4+CD25+CD127− Treg cells; experiment: ELISA of secreted cytokines (TNFα, IL-10, IFNγ) in conditioned media of Treg cultures; assay type: cell-based, human; settings: PMA relative to controls
Description: (§1) CD4^+CD25^+CD127^− Treg cells were sorted by FACS into phosphate buffered saline (PBS) containing 20% AB serum (Sigma-Aldrich®, UK), then washed and resuspended in serum-free cell culture medium (TexsMACS™ medium; Miltenyi Biotec®, UK), supplemented with 5% AB serum (Sigma-Aldrich®, UK), 1% Penicillin-Streptomycin (Gibco®, Ireland) and human IL-2 (Miltenyi Biotec®, UK). Trypan blue (Sigma-Aldrich®, UK) was used to ensure cell viability after sorting was >90-95%. A human Treg expansion kit (Miltenyi Biotec, UK) was used to induce Treg proliferation in order to expand the population to sufficient cell numbers for experiments. Following 14 days of expansion, Tregs were stimulated with 10 ng/ml phorbol 12-myristate 13-acetate (PMA) (Sigma-Aldrich®, UK) and 500 ng/ml ionomycin (10) (Invitrogen®) for 24 hours. During the same 24-hour stimulation, Tregs were incubated with or without 10 mM sialic acid (Sia) (Sigma-Aldrich®, UK). At baseline, 24 hr and 48 hr time points (Day 0, Day 1 and Day 2), cells were removed from culture and labelled prior to FACS analysis of extracellular markers CD4, CD25, CD127 and CD43, and intracellular markers NFκB and FoxP3. Cell culture conditioned media was retained and analysed for secreted cytokine levels by enzyme-linked immunosorbent assay (ELISA), described below. A preliminary experiment included a Day 2 time-point, however latter experiments were concluded at the Day 1 time-point as this was sufficient to observe Sia treatment effects. […]
Following cell culture experiments, conditioned media were analysed to quantify TNFα, IL-10 and IFN-γ by ELISA using appropriate ELISA reagent kits (DuoSet® ELISA development kits; R&D Systems®, UK) according to the manufacturer's instructions. The optical density (OD) was determined using a spectrophotometer (Epoch™ microplate spectrophotometer; BioTek® Ltd, UK) with appropriate software (Gen5™; BioTek® Ltd, UK). The plate was read at a wavelength of 450 nm and wavelength correction of OD at 540 nm used. […]

[2] = system: CD4+CD25+CD127− Treg cells; experiment: FACS analysis of CD4, NFκB and FoxP3 in expanded Tregs stimulated with PMA with or without Sia; assay type: cell-based, human
Description: PBMCs were labelled with antibodies (Becton Dickinson®, UK) against CD3, CD4, CD25, CD45, CD45RA, CD127 and CD43 antigens according to the manufacturer's instructions to assess relative Treg numbers. When FoxP3 and nuclear factor kappa-light-chain-enhancer of activated B cells (NFκB) antibody labelling was required, cells were pretreated with a lymphocyte membrane permeabilising solution (BD FACS™ Permeabilizing solution 2; Becton Dickinson®, UK). For monocyte analysis, cells were firstly enriched using a pan monocyte isolation kit and benchtop magnetic cell sorting device (autoMACS Pro separator; Miltenyi Biotec®). Enriched monocytes were labelled with antibodies (Becton Dickinson®, UK) against CD14, CD16 and CD169 antigens. Cell populations were analysed using fluorescence-activated cell sorting (FACS) in a flow cytometer with sorting capability (FACSAria™ III; Becton Dickinson, UK) with appropriate flow cytometer software (BD FACSDiva™ software version 8.0.1; Becton Dickinson, UK). Negative controls including unlabelled cells and isotype matched control antibodies were used to determine gating strategies. The positivity of a specific cell surface marker in labelled samples compared to the negative control was analysed as a percentage of the parent population. The median fluorescence intensity (MFI), indicating cell surface density of a specific marker, was also noted for cell populations. Mann Whitney tests were used to assess the statistical significance of differences between sample groups and graphs depict median values with error bars representing the interquartile range.
as §1, with “At baseline, 24 hr and 48 hr time points (Day 0, Day 1 and Day 2), cells were removed from culture and labelled prior to FACS analysis of extracellular markers CD4, CD25, CD127 and CD43, and intracellular markers NFκB and FoxP3.” left out, “below.” for “below. A preliminary experiment included a Day 2 time-point, however latter experiments were concluded at the Day 1 time-point as this was sufficient to observe Sia treatment effects.”

Compound | IFNγ levels secreted into media ([1]; Day 1, p<0.01) | levels of IL-10 secreted into media ([1]; Day 1 and Day 2, p<0.05) | levels of TNFα secreted into media ([1]; Day 1 and Day 2, p<0.05) | CD4 cell-surface expression (percentage of CD4 positivity) ([2]; 10 ng/ml PMA + 500 ng/ml ionomycin, compared to CTL cells without stimulation) | percentage of cells with intracellular expression of FoxP3 ([2]; PMA stimulation, both CD43+ and CD43− Tregs, each time point, p<0.01) | percentage of cells with intracellular expression of NFκB ([2]; PMA stimulation, both CD43+ and CD43− Tregs, each time point, p<0.05) | effect on NFκB Tregs ([2]; 10 mM Sia added to PMA-stimulated Tregs, after 2 days)
CCCCCCCCCCCCCC(=O)O[C@@H]1[C@@H](C)[C@@]2(O)[C@@H](C=C(CO)C[C@]3(O)C(=O)C(C)=C[C@@H]23)[C@@H]2C(C)(C)[C@]12OC(C)=O [PMA, phorbol 12-myristate 13-acetate] | significantly higher | significantly increased | significantly increased | reduced; also recorded: reduction | increased | increased | 
CC(=O)N[C@H]1[C@H]([C@H](O)[C@H](O)CO)OC(O)(C(=O)O)C[C@@H]1O (stereo partly shown) [Sia, sialic acid] |  |  |  |  |  |  | no significant effect
